Measurements published in paper PMC8145596, “Novel Chemically Modified Curcumin (CMC) Derivatives Inhibit Tyrosinase Activity and Melanin Synthesis in B16F10 Mouse Melanoma Cells” (Biomolecules, 2021).

Columns and labels:
[1] = test system: B16F10 mouse melanoma cells; test: MTS cell viability assay; type: cell-based; conditions: for cell viability / cytotoxicity: 48 h; for cell viability: B16F10; for cytotoxicity: B16F10, full concentration range
Description: B16F10 mouse melanoma cells (CRL-6475™) were obtained from American Type Culture Collection (ATCC, Manassas, VA, USA) and cultured using Dulbecco’s Modified Eagle Medium (DMEM) supplemented with 10% heat-inactivated fetal bovine serum (HI-FBS) and 1% antibiotics (penicillin-streptomycin) in a humidified incubator with 95% air—5% CO2 at 37 °C. In order to test the four CMCs (CMC2.14, CMC2.24, CMC2.5 and CMC2.23) to that of PC, for their effects on melanin content, we first screened them for cytotoxicity using a tetrazolium assay with MTS (Promega CellTiter Aqueous One). Briefly, B16F10 cells were seeded at 4 × 10^3 cells/well in a 96-well plate for 24 h. The compounds were diluted using culture medium to yield a final DMSO in all groups of 0.16% and added to the cell monolayers in wells after 24 h. Control was treated with 0.16% DMSO. At the end of 48 h, the medium was aspirated and replaced by 100 μL of fresh medium. 20 μL of MTS reagent was then added, and the plate was incubated at 37 °C for 40 min. At this point, the absorbance of 100 μL aliquots was read at 490 nm using a microplate reader. Cell viability was calculated from the absorbance values relative to control groups and expressed in %.

[2] = test system: B16F10 mouse melanoma cells; test: Melanin levels in B16F10 cells; type: cell-based; conditions: for suppression of melanin levels: 48 h
Description: B16F10 cells (1 × 10^5 cells/well) were seeded in 12-well plates and cultured for 24 h. The medium was then replaced with compounds at nontoxic concentrations that were selected on the basis of the MTS assay and incubated for another 48 h. After the treatments, the cells were detached using TrypLE (1×), and cell pellets were washed in PBS. Cell pellets were visually observed for lightening of the pigment. After aspiration, 250 μL of 1N NaOH was added and heated to 70 °C to solubilize melanin. The aliquots were then transferred to a 96-well plate and absorbance was read at 475 nm using a microplate reader. The absorbance was normalized to total protein content and was expressed as % of control.

[3] = test system: tyrosinase activity in B16F10 cells; test: Intracellular tyrosinase activity in B16F10 cell lysates; type: cell-based, mouse; conditions: 48 h
Description: B16F10 cells (4 × 10^4 cells/well in 1 mL medium) were cultured in 24-well plates for 24 h. After that, the medium was replaced by fresh medium containing the compounds, and further incubated for 48 h. At the end of treatments, the cells were harvested, and cell pellets were washed in PBS and lysed and then centrifuged. Lysates (50 µL) were then aliquoted in a 96-well plate and 150 µL of 3 mM L-DOPA was added. The absorbance was measured at 475 nm every 30 s for 40 min at 30 °C using a microplate reader in the kinetic mode. The tyrosinase activity was calculated from the slope of the linear range of the velocity in the presence of each test compound and normalized to the total protein content and reported as % of control.

[4] = test system: tyrosinase activity in B16F10 cells; test: Recovery study of intracellular tyrosinase activity; type: cell-based, mouse
Description: In order to establish reversibility of tyrosinase inhibition by the CMCs, we conducted a recovery study for 48 h using the highest concentrations of the compounds that produced maximum inhibition of tyrosinase activity. B16F10 cells were plated in six-well plates at 3.5 × 10^4 cells/well and then compounds were added the next day. Tyrosinase activity was estimated after 48 h exposure in cellular lysates and another set of cultures were continued with fresh medium without the compounds to study the recovery of tyrosinase activity for 48 h. Results are expressed as % tyrosinase activity for both 48 h exposure and 48 h recovery.

[5] = test system: α-glucosidase activity in B16F10 cells; test: Intracellular α-glucosidase assay; type: cell-based, mouse; conditions: 48 h; for inhibition at 10 µM / inhibition at 20 µM / inhibition at 25 µM / inhibition at 5 µM: Mus musculus, B16-F10, read-out: inhibition of cellular α-glucosidase activity
Description: B16F10 cells (2.2 × 10^5) were grown in 6-well plates and compounds were added next day for 48 h. Cells were harvested, lysed and 50 µL of lysates were aliquoted in a 96-well plate with 100 µL of 2 mM pNG substrate; rate of the formation of the yellow-colored reaction product, p-nitrophenol, was monitored at 405 nm for 30 min at 37 °C in a microplate reader (kinetic mode) and values were normalized to total protein contents. The cellular α-glucosidase activity was calculated as (rate of sample reaction/rate of control reaction) × 100 and was expressed as percentage of control.

[6] = molecular target: T1, α-glucosidase enzyme from Baker’s yeast (Saccharomyces cerevisiae, UniProt P53341); test: Cell-free α-glucosidase assay; type: biochemical
T1 construct: purchased Sigma-Aldrich (St. Louis, MO, USA)
Description: The effects of compounds on α-glucosidase were assayed based on the method decribed previously with some modifications. 80 µL of samples (prepared in 0.05 M phosphate buffer, pH 6.8) were aliquoted in a 96-well microplate followed by the addition of 100 µL of 2.4 mM pNG substrate solution. A volume of 20 µL of 0.45 units of α-glucosidase enzyme from Baker’s yeast prepared in 0.05 M buffer was added to start the reaction; the rate of the formation of p-nitrophenol was monitored at 405 nm for 15 min at 37 °C in a microplate reader in kinetic mode. The enzyme activity (%) was calculated as: (rate of sample reaction/rate of control reaction) × 100%.

[7] = test system: cAMP levels in B16F10 cells; test: cAMP levels by competitive ELISA in B16F10 lysates; type: cell-based, mouse; conditions: for effect on cAMP levels: all concentrations tested
Text: For assaying the levels of cAMP in B16F10 cellular lysates, a competitive ELISA (Enzo Life Sciences, Farmingdale, NY, USA) was used in non-acetylated format based on manufacturer instructions.

[8] = test system: MITF protein in B16F10 cells; test: MITF protein levels by cell-based ELISA; parameters: species or system mouse; conditions: 48 h
Description: Microphthalmia Transcription Factor (MITF), a known transcription factor for the tyrosinase gene, is a master regulator of melanogenesis and is activated by cyclic adenosine monophosphate (cAMP) signaling after UV irradiation, reflecting the role of cAMP as a key maturation factor in melanogenesis. The effects of PC and CMCs on MITF protein levels were assayed using a cell-based ELISA (Lifespan Biosciences, Seattle, WA, USA). Briefly, B16F10 cells were cultured in a 96-well plate at 1 × 10^4 cells/well for 24 h and then the medium was replaced with fresh medium containing compounds in 0.1% DMSO and cultures maintained for further 48 h. The cells were then fixed, and subsequent steps were conducted according to the manufacturers’ instructions. MITF protein levels were normalized to cell density by measuring the absorbance of crystal violet stain added to the fixed cells and the data was reported as % of control.

[9] = Mus musculus, B16-F10, 48 h, read-out: loss of tyrosinase activity after 48 h exposure (recovery study)

T1 sequence (P53341 whole entry): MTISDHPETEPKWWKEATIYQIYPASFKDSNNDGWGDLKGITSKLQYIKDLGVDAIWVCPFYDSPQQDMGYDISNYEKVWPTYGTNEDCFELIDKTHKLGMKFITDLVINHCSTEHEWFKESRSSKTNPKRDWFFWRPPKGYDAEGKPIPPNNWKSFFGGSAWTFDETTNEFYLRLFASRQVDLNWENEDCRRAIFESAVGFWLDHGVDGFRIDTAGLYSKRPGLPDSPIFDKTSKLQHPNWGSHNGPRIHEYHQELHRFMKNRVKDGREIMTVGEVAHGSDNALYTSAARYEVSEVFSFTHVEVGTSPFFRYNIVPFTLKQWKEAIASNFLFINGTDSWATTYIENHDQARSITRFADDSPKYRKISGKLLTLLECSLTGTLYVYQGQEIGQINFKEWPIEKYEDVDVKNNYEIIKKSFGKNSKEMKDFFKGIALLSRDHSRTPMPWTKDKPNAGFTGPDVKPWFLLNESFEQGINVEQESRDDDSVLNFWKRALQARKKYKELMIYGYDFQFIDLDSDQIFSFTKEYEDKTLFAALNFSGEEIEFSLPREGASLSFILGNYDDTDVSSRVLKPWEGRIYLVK

Molecule	suppression of melanin levels ([2]; 10 µM) [%]	suppression of intracellular tyrosinase activity ([3]; 10 µM) [%]	tyrosinase activity after 48 h recovery in compound-free medium ([4]; after exposure to 10 µM)	effect on cAMP levels ([7]; 48 h)	attenuation of MITF protein levels ([8]; 10 µM) [%]	cytotoxicity [1]	suppression of melanin levels ([2]; 20 µM) [%]	suppression of melanin levels ([2]; 25 µM) [%]	suppression of intracellular tyrosinase activity ([3]; 20 µM) [%]	suppression of intracellular tyrosinase activity ([3]; 25 µM) [%]	inhibition at 20 µM [4, 9] [%]	inhibition at 10 µM ([5]; 10 µM) [%]	inhibition at 20 µM [5] [%]	inhibition at 25 µM ([5]; 25 µM) [%]	inhibition at 20 µM [6] [%]	attenuation of MITF protein levels ([8]; 20 µM) [%]	attenuation of MITF protein levels ([8]; 25 µM) [%]	suppression of intracellular tyrosinase activity ([3]; 5 µM) [%]	inhibition at 10 µM ([6]; 10 µM) [%]	inhibition at 5 µM ([5]; 5 µM) [%]	further results
1,7-bis(4-hydroxy-3-methoxyphenyl)-1,6-heptadien-3,5-dione [PC, reference compound]	20.92	47.85	did not differ from that of the control group	trend for attenuation of cAMP levels, but the levels were not significant	28.62	–	–	–	–	–	–	–	–	–	–	–	–	–	–	–	cell viability ([1]; 20 µM): 29.47%; cell viability ([1]; 25 µM): 30.83%; concentrations with significant cytotoxicity ([1]; B16F10, 48 h): > 10 µM; inhibition ([4]; 10 µM, read-out: loss of tyrosinase activity after 48 h exposure (recovery study)): 89.5%; inhibition of cellular α-glucosidase activity ([5]; 5 µM): 13.71%; inhibition of cellular α-glucosidase activity ([5]; 10 µM): 10.47%; inhibition of cell-free α-glucosidase activity ([6]; 5 µM): 20.13%; inhibition of cell-free α-glucosidase activity ([6]; 10 µM): 22.13%
COC(=O)/C(C(=O)/C=C/c1ccc(O)c(OC)c1)=C(O)\C=C\c1ccc(O)c(OC)c1 [CMC2.5, 4-methoxycarbonyl curcumin]	–	19.98	–	did not affect cAMP levels at any concentration	–	nontoxic over the full concentration range	34.84	31.40	23.16	26	42.5	12.4	25.6	27.4	14	32.17	35.4	–	–	–	tyrosinase activity after 48 h recovery in compound-free medium ([4]; after exposure to 20 µM): 100%; cell-free α-glucosidase activity ([6]; concentrations other than 20 µM): no change was observed at any other concentration
COC(=O)/C(C(=O)/C=C/c1ccc(O)cc1)=C(O)\C=C\c1ccc(O)cc1 [CMC2.14]	28.42	50.31	100%	did not affect cAMP levels at any concentration	23.67	–	–	–	–	–	–	16.5	–	–	–	–	–	47.96	14.3	–	inhibition at 10 µM ([4]; Mus musculus, B16-F10, 48 h, 10 µM, read-out: loss of tyrosinase activity after 48 h exposure (recovery study)): 74.8%
COc1cc(/C=C/C(=O)/C(C(=O)Nc2ccccc2)=C(O)/C=C/c2ccc(O)c(OC)c2)ccc1O [CMC2.23]	28.63	30.04	–	did not affect cAMP levels at any concentration	32.27	nontoxic over the full concentration range	33.68	37.87	44.64	51.47	52.7	14.9	11.8	–	19.8	39.29	37.22	–	16.5	12.4	inhibition of cellular α-glucosidase activity ([5]; 25 µM): no change; inhibition at 5 µM ([6]; 5 µM): 15.5%; inhibition at 25 µM [6]: 17.2%
O=C(/C=C/c1ccc(O)cc1)/C(C(=O)Nc1ccccc1)=C(O)/C=C/c1ccc(O)cc1 [CMC2.24]	32.54	53.76	–	–	28.39	nontoxic over the full concentration range	43.53	41.07	64.25	68.81	73.3	12.6	20.3	16.4	35.3	31.79	38.84	38.6	25.6	10.2	fold higher level of melanin inhibition vs PC ([2]; 20 µM): 1.5 fold; fold higher level of melanin inhibition vs PC ([2]; 25 µM): 2 fold; inhibition at 5 µM ([6]; 5 µM): 27.1%; inhibition at 25 µM [6]: 41.3%; attenuation of cAMP levels ([7]; 10 µM, 48 h (not significant)): 18.13%; attenuation of cAMP levels ([7]; 20 µM, 48 h): 38.18%; attenuation of cAMP levels ([7]; 25 µM, 48 h): 49.42%
